Results on one compound are retold here after article PMC3741380, “The N-Terminally Truncated µ3 and µ3-Like Opioid Receptors Are Transcribed from a Novel Promoter Upstream of Exon 2 in the Human OPRM1 Gene” (PLoS ONE, 2013).

The target of the test is T1, hMOR-1 (Homo sapiens, UniProt P35372).
T1 construct: gene OPRM1; classical 7TM splice variant, C-terminal GFP fusion kept (pcDNA3-GFP), stably expressed in HEK 293 cells
The test can be described thus: cell-based. From the text:
inhibition of forskolin-stimulated cAMP accumulation, [3H]-cAMP competition assay on hMOR-1

T1 sequence (P35372 whole entry, the tested form may be a part, canonical isoform): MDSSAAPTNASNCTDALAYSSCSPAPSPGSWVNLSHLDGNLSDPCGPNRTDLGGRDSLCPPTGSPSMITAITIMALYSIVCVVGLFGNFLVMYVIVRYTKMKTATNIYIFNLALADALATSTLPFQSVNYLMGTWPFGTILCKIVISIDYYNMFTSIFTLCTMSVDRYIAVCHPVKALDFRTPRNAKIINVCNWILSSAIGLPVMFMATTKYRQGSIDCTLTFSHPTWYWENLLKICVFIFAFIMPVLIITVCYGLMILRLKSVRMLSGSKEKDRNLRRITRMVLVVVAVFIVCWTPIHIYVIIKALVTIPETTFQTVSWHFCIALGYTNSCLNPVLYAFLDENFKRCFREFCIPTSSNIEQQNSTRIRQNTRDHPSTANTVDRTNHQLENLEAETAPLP

The term IC50 denotes the concentration that inhibits the measured activity by half. Low values mean inhibition by little substance, high ones a need for much substance. Regarding `CN1CC[C@]23c4c5ccc(O)c4O[C@H]2[C@@H](O[C@@H]2O[C@H](C(=O)O)[C@@H](O)[C@H](O)[C@H]2O)C=C[C@H]3[C@H]1C5` [M6G], the IC50 is 27.3 ± 11.2 nM.
